“And” between values parts separate entries of the source, which are not always exact repeats. Identical values can stand only once. ± gives the expanded uncertainty stated by the source.
Settings: 101.33 kPa, Liquid; for mass density: Vibrating tube method; for viscosity: Capillary tube (Ostwald / Ubbelohde) method

| SMILES | mass density (288.15 K) | viscosity (288.17 K) | viscosity (298.11 K) | mass density (298.15 K) | viscosity (308.05 K) | mass density (308.15 K) | viscosity (318.06 K) | mass density (318.15 K) | viscosity (328.08 K) | mass density (328.15 K) | also measured |
| --- | --- | --- | --- | --- | --- | --- | --- | --- | --- | --- | --- |
| CCCCCCCCCCCCCC[P+](CCCCCC)(CCCCCC)CCCCCC.N#C[N-]C#N [tetradecyl(trihexyl)phosphonium dicyanamide] | 903.4 ± 0.9 kg/m3 | 665.15 ± 30 mPa·s | 362.9 ± 13 mPa·s | 897.6 ± 0.9 kg/m3 | 210.07 ± 6.4 mPa·s | 891.9 ± 0.9 kg/m3 | 129.77 ± 3.3 mPa·s | 886.3 ± 0.9 kg/m3 | 83.81 ± 1.9 mPa·s | 880.7 ± 0.9 kg/m3 | viscosity (288.31 K): 664.13 ± 34 mPa·s; viscosity (298.07 K): 362.32 ± 16 mPa·s; viscosity (308.09 K): 210.09 ± 8.3 mPa·s; viscosity (318.01 K): 129.78 ± 4.6 mPa·s; viscosity (328.03 K): 83.95 ± 2.8 mPa·s |
| CCCCn1cc[n+](C)c1.N#CN=C=[N-] [1-butyl-3-methylimidazolium dicyanamide] | 1066.9 ± 1.1 kg/m3 | 45.86 ± 0.96 mPa·s | 30.15 ± 0.63 mPa·s and 30.15 ± 0.93 mPa·s | 1060.5 ± 1.1 kg/m3 | 20.91 ± 0.44 mPa·s | 1054.2 ± 1.1 kg/m3 | 15.19 ± 0.32 mPa·s | 1047.9 ± 1.1 kg/m3 | 11.55 ± 0.24 mPa·s | 1041.7 ± 1.1 kg/m3 | viscosity (288.22 K): 45.82 ± 1.4 mPa·s; viscosity (308.12 K): 20.94 ± 0.64 mPa·s; viscosity (318.05 K): 15.21 ± 0.47 mPa·s; viscosity (328.05 K): 11.56 ± 0.36 mPa·s |
| CCCCCC[n+]1ccn(C)c1.O=S(=O)([N-]S(=O)(=O)C(F)(F)F)C(F)(F)F | 1381.3 ± 1.5 kg/m3 |  |  | 1372.2 ± 1.5 kg/m3 | 44.87 ± 0.94 mPa·s | 1363 ± 1.5 kg/m3 |  | 1353.9 ± 1.4 kg/m3 | 21.92 ± 0.46 mPa·s and 21.92 ± 0.52 mPa·s | 1344.9 ± 1.4 kg/m3 | viscosity (288.19 K): 115.89 ± 2.8 mPa·s and 115.81 ± 3.1 mPa·s; viscosity (298.12 K): 69.47 ± 1.5 mPa·s and 69.62 ± 1.7 mPa·s; viscosity (308.11 K): 44.86 ± 1.1 mPa·s; viscosity (317.95 K): 30.77 ± 0.74 mPa·s; viscosity (318.07 K): 30.77 ± 0.65 mPa·s |
